Data published in patent US7393848B2, “Certain heterocyclic substituted imidazo[1,2-A]pyrazin-8-ylamines and methods of inhibition of Bruton's tyrosine kinase by such compounds” (CGI Pharmaceuticals, Inc., priority 2003, dated 2008).

Biological target: T1, full length human wildtype Btk (Homo sapiens, UniProt Q06187)
T1 construct: V5 (C); 6xHis (C); made in house; host or cells: Sf9 insect cells (baculovirus, pFastBac / Bac-to-Bac)
Assay: Biochemical Btk Assay (time-resolved fluorescence kinase assay)
Conditions: 40 μM ATP, 1 hour at room temperature; read-out: IC50 value in the Btk biochemical assay of Example 7
Method: A generalized procedure for one standard biochemical Btk Kinase Assay used to test compounds disclosed in this application is as follows.
A master mix minus Btk enzyme is prepared containing 1× Cell Signaling kinase buffer (25 mM Tris-HCl, pH 7.5, 5 mM […]-glycerophosphate, 2 mM dithiothreitol, 0.1 mM Na3VO4, 10 mM MgCl2), 0.5 μM Promega PTK Biotinylated peptide substrate 2, and 0.01% BSA. A master mix plus Btk enzyme is prepared containing 1× Cell Signaling kinase buffer, 0.5 μM PTK Biotinylated peptide substrate 2, 0.01% BSA, and 100 ng/well (0.06 mU/well) Btk enzyme. Btk enzyme is prepared as follows: full length human wildtype Btk (accession number NM-000061) with a C-terminal V5 and 6× His tag was subcloned into pFastBac vector for making baculovirus carrying this epitope-tagged Btk. […] A quantity of 1.25 μL of compounds in 5% DMSO is transferred to a 96-well ½ area Costar polystyrene plate. […] A quantity of 18.75 μL of master mix minus enzyme (as a negative control) and master mix plus enzyme is transferred to appropriate wells in 96-well ½ area costar polystyrene plate. […] The plate is read using time-resolved fluorescence with a Perkin Elmer Envision using excitation filter 330 nm, emission filter 665 nm, and 2nd emission filter 615 nm. IC50 values are subsequently calculated.

T1 sequence (Q06187 whole entry): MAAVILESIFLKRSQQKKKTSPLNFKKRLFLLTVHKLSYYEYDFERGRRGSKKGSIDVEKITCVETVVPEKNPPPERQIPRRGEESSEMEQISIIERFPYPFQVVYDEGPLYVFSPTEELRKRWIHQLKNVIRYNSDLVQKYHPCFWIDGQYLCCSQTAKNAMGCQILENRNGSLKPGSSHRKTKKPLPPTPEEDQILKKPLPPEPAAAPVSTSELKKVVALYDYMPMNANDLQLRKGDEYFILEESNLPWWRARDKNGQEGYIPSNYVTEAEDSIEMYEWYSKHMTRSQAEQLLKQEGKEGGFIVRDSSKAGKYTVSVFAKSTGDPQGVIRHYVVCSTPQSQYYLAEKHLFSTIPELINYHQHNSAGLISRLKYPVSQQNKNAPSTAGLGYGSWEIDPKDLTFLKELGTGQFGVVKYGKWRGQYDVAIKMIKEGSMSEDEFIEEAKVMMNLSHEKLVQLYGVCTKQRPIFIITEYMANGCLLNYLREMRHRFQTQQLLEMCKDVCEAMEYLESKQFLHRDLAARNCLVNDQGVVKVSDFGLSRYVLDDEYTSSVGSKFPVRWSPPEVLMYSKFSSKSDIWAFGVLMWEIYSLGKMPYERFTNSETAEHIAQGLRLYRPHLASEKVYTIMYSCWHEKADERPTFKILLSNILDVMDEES

Compound `CC(C)(C)c1ccc(C(=O)Nc2cccc(-c3cn4ccnc4c(Nc4ccc5[nH]ncc5c4)n3)c2)cc1` [Example 6] has an IC50 of under 1000 nM.
